Experiments:
LecA = target: T1, LecA (Pseudomonas aeruginosa, UniProt Q05097); test: biochemical; assay type: binding; conditions: for –ΔH (binding enthalpy) / n (stoichiometry, glycocluster molecules per lectin monomer) / –ΔG / –ΔH / −TΔS / binding to LecA in words / α (relative potency compared to the monovalent compound) / β (relative potency per sugar unit): LecA; for –ΔH (binding enthalpy) / n (stoichiometry, glycocluster molecules per lectin monomer) / –ΔG / –ΔH / −TΔS: ITC; for n (stoichiometry, glycocluster molecules per lectin monomer) / –ΔG / –ΔH / −TΔS: 25°C; for n (stoichiometry, glycocluster molecules per lectin monomer): pH 7.5; for –ΔG / –ΔH / −TΔS: per mole of glycocluster; for binding to LecA in words: abstract; for α (relative potency compared to the monovalent compound) / β (relative potency per sugar unit): relative to βGal-OMe
T1 construct: made in house; host or cells: Escherichia coli BL21(DE3)
Method: (§1) The resulting hGCs were tested in solution with lectins by Isothermal Titration Calorimetry (Table 1) and their binding properties were compared with homoclusters 15–20 (Berthet et al., [2013]; Thomas et al., [2015b]) displaying either 4 and 16 βGal or αFuc units attached with an oxime or a triazole linker (Figure 3). […] Experiments were performed in direct injection mode (i.e., ligand in syringe and protein in cell) to minimize aggregation problems.
(§2) All chemical reagents were purchased from Aldrich (Saint Quentin Fallavier, France) or Acros (Noisy-Le-Grand, France). All protected amino acids and Fmoc-Gly-Sasrin® resin was obtained from Advanced ChemTech Europe (Brussels, Belgium). For peptides and glycopeptides, analytical RP-HPLC was performed on Waters system equipped with a Waters 2695 separations module and a Waters 2487 Dual Absorbance UV/Visible Detector. Analysis was carried out at 1.0 mL/min (EC 125/3 nucleosil 300-5 C18) with UV monitoring at 214 nm and 250 nm using a linear A–B gradient (buffer A: 0.09% CF3CO2H in water; buffer B: 0.09% CF3CO2H in 90% acetonitrile). Purifications were carried out at 22.0 mL/min (VP 250/21 nucleosil 100-7 C18) with UV monitoring at 214 nm and 250 nm using a linear A–B gradient. HRMS and ESI-MS and HRMS spectra of peptides and glycopeptides were measured on an Esquire 3000 spectrometer from Bruker. Lectins LecA and LecB were produced in recombinant form in Escherichia coli BL21(DE3) as described previously (Mitchell et al., [2005]; Blanchard et al., [2008]).
Other compounds were assayed with a VP-ITC isothermal titration calorimeter (Microcal). The experiments were carried out at 25°C. All glycocompounds and lectins LecB and LecA were dissolved in the same buffer composed of 20 mM Tris with 100 mM NaCl and 0.1 mM CaCl2 at pH 7.5. For PEAQ-ITC, the lectins were placed in the microcalorimeter cell (200 μL) at concentrations varying from 35 to 70 μM. […] For VP-ITC, the microcalorimeter cell (1.447 mL) contained the lectins with concentrations between 30 and 100 μM. […] The experimental data were fitted to a theoretical titration curve using the Microcal PEAQ-ITC analysis software, with ΔH (enthalpy change), Ka (association constant), and N (number of binding sites per monomer) as adjustable parameters. Dissociation constant (Kd), free energy change (ΔG), and entropy contributions (TΔS) were derived from the previous ones. Two or three independent titrations were performed for each ligand tested.

LecB = target: T2, LecB (Pseudomonas aeruginosa, UniProt Q9HYN5); test: biochemical; assay type: binding; conditions: for n (stoichiometry, glycocluster molecules per lectin monomer) / –ΔG / –ΔH / −TΔS / Kd: 25°C; for n (stoichiometry, glycocluster molecules per lectin monomer): pH 7.5; for –ΔG / –ΔH / −TΔS: per mole of glycocluster; for Kd: 20 mM Tris, 100 mM NaCl, 0.1 mM CaCl2, pH 7.5, ligand in syringe; for binding to LecB in words: abstract
T2 construct: made in house; host or cells: Escherichia coli BL21(DE3)
Method: as §1, §2
Other compounds were assayed with a VP-ITC isothermal titration calorimeter (Microcal). The experiments were carried out at 25°C. All glycocompounds and lectins LecB and LecA were dissolved in the same buffer composed of 20 mM Tris with 100 mM NaCl and 0.1 mM CaCl2 at pH 7.5. For PEAQ-ITC, the lectins were placed in the microcalorimeter cell (200 μL) at concentrations varying from 35 to 70 μM. […] For VP-ITC, the microcalorimeter cell (1.447 mL) contained the lectins with concentrations between 30 and 100 μM. A total of 30 injections of 10 μL were performed intervals of 5 min while stirring at 310 rpm with glycoclusters concentrations varying from […]. The experimental data were fitted to a theoretical titration curve using the Microcal PEAQ-ITC analysis software, with ΔH (enthalpy change), Ka (association constant), and N (number of binding sites per monomer) as adjustable parameters. Dissociation constant (Kd), free energy change (ΔG), and entropy contributions (TΔS) were derived from the previous ones. Two or three independent titrations were performed for each ligand tested.

T1 sequence (Q05097 whole entry): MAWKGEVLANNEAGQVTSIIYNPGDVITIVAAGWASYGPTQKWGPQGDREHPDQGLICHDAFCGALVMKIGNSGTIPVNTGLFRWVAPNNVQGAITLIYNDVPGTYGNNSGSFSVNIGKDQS
T2 sequence (Q9HYN5 entry or part of it): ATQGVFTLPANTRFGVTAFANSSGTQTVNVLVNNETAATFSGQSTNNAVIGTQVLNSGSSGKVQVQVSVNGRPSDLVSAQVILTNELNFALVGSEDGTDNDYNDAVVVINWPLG

SMILES | Kd (LecA) [nM] | –ΔH (binding enthalpy) (LecA) [kcal/mol] | n (stoichiometry, glycocluster molecules per lectin monomer) (LecA) | –ΔG (LecA) [kcal/mol] | –ΔH (LecA) [kcal/mol] | −TΔS (LecA) [kcal/mol] | binding to LecA in words (LecA) | α (relative potency compared to the monovalent compound) (LecA) | β (relative potency per sugar unit) (LecA) | –ΔH (binding enthalpy) (LecB; ITC) [kcal/mol] | n (stoichiometry, glycocluster molecules per lectin monomer) (LecB; ITC) | –ΔG (LecB; ITC) [kcal/mol] | –ΔH (LecB; ITC) [kcal/mol] | −TΔS (LecB; ITC) [kcal/mol] | Kd (LecB; ITC) [nM] | binding to LecB in words (LecB) | α (relative potency compared to the monovalent compound) (LecB; relative to αFuc-OMe) | β (relative potency per sugar unit) (LecB; relative to αFuc-OMe)
C[C@@H]1NC(=O)[C@H](CCCCNC(=O)/C=N/O[C@@H]2O[C@@H](C)[C@@H](O)[C@@H](O)[C@@H]2O)NC(=O)CNC(=O)[C@@H]2CCCN2C(=O)[C@H](CCCCNC(=O)/C=N/O[C@@H]2O[C@@H](C)[C@@H](O)[C@@H](O)[C@@H]2O)NC(=O)[C@H](CCCCNC(=O)CO/N=C/C(=O)NCCCC[C@@H]2NC(=O)CNC(=O)[C@@H]3CCCN3C(=O)[C@H](CCCCNC(=O)/C=N/OCC(=O)NCCCC[C@@H]3NC(=O)[C@H](CCCCNC(=O)/C=N/O[C@@H]4O[C@@H](C)[C@@H](O)[C@@H](O)[C@@H]4O)NC(=O)CNC(=O)[C@@H]4CCCN4C(=O)[C@H](CCCCNC(=O)/C=N/O[C@@H]4O[C@@H](C)[C@@H](O)[C@@H](O)[C@@H]4O)NC(=O)[C@H](C)NC(=O)[C@H](CCCCNC(=O)/C=N/O[C@@H]4O[C@@H](C)[C@@H](O)[C@@H](O)[C@@H]4O)NC(=O)CNC(=O)[C@@H]4CCCN4C(=O)[C@H](CCCCNC(=O)/C=N/O[C@@H]4O[C@@H](C)[C@@H](O)[C@@H](O)[C@@H]4O)NC3=O)NC(=O)[C@H](CCCCN)NC(=O)[C@H](CCCCNC(=O)CO/N=C/C(=O)NCCCC[C@@H]3NC(=O)[C@H](CCCCn4cc(CO[C@@H]5O[C@H](CO)[C@H](O)[C@H](O)[C@H]5O)nn4)NC(=O)CNC(=O)[C@@H]4CCCN4C(=O)[C@H](CCCCn4cc(CO[C@@H]5O[C@H](CO)[C@H](O)[C@H](O)[C@H]5O)nn4)NC(=O)[C@H](C)NC(=O)[C@H](CCCCn4cc(CO[C@@H]5O[C@H](CO)[C@H](O)[C@H](O)[C@H]5O)nn4)NC(=O)CNC(=O)[C@@H]4CCCN4C(=O)[C@H](CCCCn4cc(CO[C@@H]5O[C@H](CO)[C@H](O)[C@H](O)[C@H]5O)nn4)NC3=O)NC(=O)CNC(=O)[C@@H]3CCCN3C(=O)[C@H](CCCCNC(=O)CO/N=C/C(=O)NCCCC[C@@H]3NC(=O)[C@H](CCCCn4cc(CO[C@@H]5O[C@H](CO)[C@H](O)[C@H](O)[C@H]5O)nn4)NC(=O)CNC(=O)[C@@H]4CCCN4C(=O)[C@H](CCCCn4cc(CO[C@@H]5O[C@H](CO)[C@H](O)[C@H](O)[C@H]5O)nn4)NC(=O)[C@H](C)NC(=O)[C@H](CCCCn4cc(CO[C@@H]5O[C@H](CO)[C@H](O)[C@H](O)[C@H]5O)nn4)NC(=O)CNC(=O)[C@@H]4CCCN4C(=O)[C@H](CCCCn4cc(CO[C@@H]5O[C@H](CO)[C@H](O)[C@H](O)[C@H]5O)nn4)NC3=O)NC(=O)[C@H](C)NC2=O)NC(=O)[C@H](CCCCNC(=O)/C=N/O[C@@H]2O[C@@H](C)[C@@H](O)[C@@H](O)[C@@H]2O)NC(=O)CNC(=O)[C@@H]2CCCN2C(=O)[C@H](CCCCNC(=O)/C=N/O[C@@H]2O[C@@H](C)[C@@H](O)[C@@H](O)[C@@H]2O)NC1=O [Compound 11] | 34 ± 7 | 51.6 to 58.1 | 0.16 | 10.2 | 55.59 ± 0.48 | 45.39 | maintain their binding potency | 4,412 | 551 | 50.7 | 0.10 | 9.61 | 50.69 ± 1.4 | 41.09 | 92 ± 14 | maintain their binding potency | 4.7 | –
C[C@@H]1NC(=O)[C@H](CCCCNC(=O)/C=N/O[C@@H]2O[C@H](CO)[C@H](O)[C@H](O)[C@H]2O)NC(=O)CNC(=O)[C@@H]2CCCN2C(=O)[C@H](CCCCNC(=O)/C=N/O[C@@H]2O[C@H](CO)[C@H](O)[C@H](O)[C@H]2O)NC(=O)[C@H](CCCCNC(=O)CO/N=C/C(=O)NCCCC[C@@H]2NC(=O)CNC(=O)[C@@H]3CCCN3C(=O)[C@H](CCCCNC(=O)/C=N/OCC(=O)NCCCC[C@@H]3NC(=O)[C@H](CCCCNC(=O)/C=N/O[C@@H]4O[C@H](CO)[C@H](O)[C@H](O)[C@H]4O)NC(=O)CNC(=O)[C@@H]4CCCN4C(=O)[C@H](CCCCNC(=O)/C=N/O[C@@H]4O[C@H](CO)[C@H](O)[C@H](O)[C@H]4O)NC(=O)[C@H](C)NC(=O)[C@H](CCCCNC(=O)/C=N/O[C@@H]4O[C@H](CO)[C@H](O)[C@H](O)[C@H]4O)NC(=O)CNC(=O)[C@@H]4CCCN4C(=O)[C@H](CCCCNC(=O)/C=N/O[C@@H]4O[C@H](CO)[C@H](O)[C@H](O)[C@H]4O)NC3=O)NC(=O)[C@H](CCCCN)NC(=O)[C@H](CCCCNC(=O)CO/N=C/C(=O)NCCCC[C@@H]3NC(=O)[C@H](CCCCn4cc(CO[C@@H]5O[C@@H](C)[C@@H](O)[C@@H](O)[C@@H]5O)nn4)NC(=O)CNC(=O)[C@@H]4CCCN4C(=O)[C@H](CCCCn4cc(CO[C@@H]5O[C@@H](C)[C@@H](O)[C@@H](O)[C@@H]5O)nn4)NC(=O)[C@H](C)NC(=O)[C@H](CCCCn4cc(CO[C@@H]5O[C@@H](C)[C@@H](O)[C@@H](O)[C@@H]5O)nn4)NC(=O)CNC(=O)[C@@H]4CCCN4C(=O)[C@H](CCCCn4cc(CO[C@@H]5O[C@@H](C)[C@@H](O)[C@@H](O)[C@@H]5O)nn4)NC3=O)NC(=O)CNC(=O)[C@@H]3CCCN3C(=O)[C@H](CCCCNC(=O)CO/N=C/C(=O)NCCCC[C@@H]3NC(=O)[C@H](CCCCn4cc(CO[C@@H]5O[C@@H](C)[C@@H](O)[C@@H](O)[C@@H]5O)nn4)NC(=O)CNC(=O)[C@@H]4CCCN4C(=O)[C@H](CCCCn4cc(CO[C@@H]5O[C@@H](C)[C@@H](O)[C@@H](O)[C@@H]5O)nn4)NC(=O)[C@H](C)NC(=O)[C@H](CCCCn4cc(CO[C@@H]5O[C@@H](C)[C@@H](O)[C@@H](O)[C@@H]5O)nn4)NC(=O)CNC(=O)[C@@H]4CCCN4C(=O)[C@H](CCCCn4cc(CO[C@@H]5O[C@@H](C)[C@@H](O)[C@@H](O)[C@@H]5O)nn4)NC3=O)NC(=O)[C@H](C)NC2=O)NC(=O)[C@H](CCCCNC(=O)/C=N/O[C@@H]2O[C@H](CO)[C@H](O)[C@H](O)[C@H]2O)NC(=O)CNC(=O)[C@@H]2CCCN2C(=O)[C@H](CCCCNC(=O)/C=N/O[C@@H]2O[C@H](CO)[C@H](O)[C@H](O)[C@H]2O)NC1=O [Compound 13] | 35 ± 0.1 | 51.6 to 58.1 | 0.16 | 10.2 | 51.6 ± 0.72 | 41.49 | maintain their binding potency | 4,286 | 536 | – | 0.10 | 9.44 | 43.71 ± 1.9 | 34.25 | 118 ± 15 | maintain their binding potency | 3.6 | 0.5

— publication PMC6783499, “Heteroglycoclusters With Dual Nanomolar Affinities for the Lectins LecA and LecB From Pseudomonas aeruginosa” (Frontiers in Chemistry, 2019)
